Reference: US20050147989A1 (priority 2003, published 2005)

Target: association reaction between recombinantly prepared mouse PrP (amino acids 23-231) and PrP-Sc aggregates prepared from the brain tissue of CJD patients (UniProt P04156+P04925)
Format: binding, human PrP-Sc (CJD patients); mouse PrP
Details: for influence on association of fluorescence-labeled recombinant PrP to prion aggregates: SIFT, 20 mM potassium phosphate buffer, pH 6.0, 0.1% Nonidet-P40

SMILES	influence on association of fluorescence-labeled recombinant PrP to prion aggregates	number of bins per sector in two-dimensional histograms of the fluorescence intensity (FIG. 4, two-dimensional SIFT evaluation by sectors)
CCCCCCCC/C=C\CCCCCCCC(=O)OC[C@H](COP(=O)(O)OCCN)OC(=O)CCCCCCC/C=C\CCCCCCCC [DOPE, dioleyl-L-phosphatidylethanolamine]	no influence on aggregation was found	–
CCCCCCCC/C=C\CCCCCCCCOCC(C[N+](C)(C)CCNC(=O)C(CCCNCCCN)NCCCN)OCCCCCCCC/C=C\CCCCCCCC.O=C([O-])C(F)(F)F (stereo not drawn) [DOSPA, 2,3-dioleyloxy-N-[2-(sperminecarboxamido)ethyl]-N,N-dimethyl-1-propanaminium trifluoroacetate]	inhibits the association of fluorescence-labeled recombinant PrP to prion aggregates at low micromolar concentrations	number of bins is decreased in sectors 1 to 9
